Experiment [1] concerns the target T1, Serine/threonine-protein kinase Nek2 (Homo sapiens) (UniProt P51955).
T1 sequence (whole entry): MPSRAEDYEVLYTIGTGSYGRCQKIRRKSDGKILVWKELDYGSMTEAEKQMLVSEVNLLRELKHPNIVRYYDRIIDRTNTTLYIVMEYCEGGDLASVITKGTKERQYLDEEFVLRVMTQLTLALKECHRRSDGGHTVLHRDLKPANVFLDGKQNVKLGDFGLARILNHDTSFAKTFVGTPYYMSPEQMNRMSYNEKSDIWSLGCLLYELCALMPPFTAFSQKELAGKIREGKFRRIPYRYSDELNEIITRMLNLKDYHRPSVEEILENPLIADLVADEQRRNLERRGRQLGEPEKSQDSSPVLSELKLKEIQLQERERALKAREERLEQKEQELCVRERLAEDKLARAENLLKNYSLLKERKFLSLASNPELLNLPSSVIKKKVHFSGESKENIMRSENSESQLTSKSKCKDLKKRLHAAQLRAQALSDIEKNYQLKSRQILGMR
The experiment can be described thus: Selectivity interaction (KinomeScan (DiscoverX)) EUB0000607a NEK2. The settings on record: at 10 µM.

Experiment [2] addresses T2, Serine/threonine-protein kinase TAO3 (Homo sapiens) (UniProt Q9H2K8).
T2 sequence (whole entry): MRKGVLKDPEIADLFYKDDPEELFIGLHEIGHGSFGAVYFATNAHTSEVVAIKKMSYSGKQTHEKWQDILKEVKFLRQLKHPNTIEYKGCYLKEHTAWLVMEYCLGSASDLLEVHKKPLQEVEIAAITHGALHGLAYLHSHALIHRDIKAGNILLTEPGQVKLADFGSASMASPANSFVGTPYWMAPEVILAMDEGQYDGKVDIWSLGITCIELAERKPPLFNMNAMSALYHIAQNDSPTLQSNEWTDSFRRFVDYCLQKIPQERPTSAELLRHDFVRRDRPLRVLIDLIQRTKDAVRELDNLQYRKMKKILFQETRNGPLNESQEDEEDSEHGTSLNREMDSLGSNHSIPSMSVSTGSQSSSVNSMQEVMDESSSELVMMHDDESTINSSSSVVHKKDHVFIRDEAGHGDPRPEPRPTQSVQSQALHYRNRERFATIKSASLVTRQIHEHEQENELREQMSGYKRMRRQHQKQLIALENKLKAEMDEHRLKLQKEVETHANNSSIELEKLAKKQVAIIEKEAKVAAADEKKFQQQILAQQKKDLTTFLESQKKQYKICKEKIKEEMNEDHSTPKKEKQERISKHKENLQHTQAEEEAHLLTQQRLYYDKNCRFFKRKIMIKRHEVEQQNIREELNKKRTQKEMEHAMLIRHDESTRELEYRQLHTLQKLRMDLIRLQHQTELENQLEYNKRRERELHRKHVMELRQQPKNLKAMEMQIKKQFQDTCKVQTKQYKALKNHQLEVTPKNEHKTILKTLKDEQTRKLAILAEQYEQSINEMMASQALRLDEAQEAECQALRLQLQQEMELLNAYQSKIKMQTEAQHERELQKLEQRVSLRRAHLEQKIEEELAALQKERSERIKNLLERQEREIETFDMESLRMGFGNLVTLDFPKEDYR
The experiment can be described thus: Selectivity interaction (KinomeScan (DiscoverX)) EUB0000229b TAOK3. The settings on record: at 10 µM.

In experiment [3] the target is T3, Serine/threonine-protein kinase Nek9 (Homo sapiens) (UniProt Q8TD19).
T3 sequence (whole entry): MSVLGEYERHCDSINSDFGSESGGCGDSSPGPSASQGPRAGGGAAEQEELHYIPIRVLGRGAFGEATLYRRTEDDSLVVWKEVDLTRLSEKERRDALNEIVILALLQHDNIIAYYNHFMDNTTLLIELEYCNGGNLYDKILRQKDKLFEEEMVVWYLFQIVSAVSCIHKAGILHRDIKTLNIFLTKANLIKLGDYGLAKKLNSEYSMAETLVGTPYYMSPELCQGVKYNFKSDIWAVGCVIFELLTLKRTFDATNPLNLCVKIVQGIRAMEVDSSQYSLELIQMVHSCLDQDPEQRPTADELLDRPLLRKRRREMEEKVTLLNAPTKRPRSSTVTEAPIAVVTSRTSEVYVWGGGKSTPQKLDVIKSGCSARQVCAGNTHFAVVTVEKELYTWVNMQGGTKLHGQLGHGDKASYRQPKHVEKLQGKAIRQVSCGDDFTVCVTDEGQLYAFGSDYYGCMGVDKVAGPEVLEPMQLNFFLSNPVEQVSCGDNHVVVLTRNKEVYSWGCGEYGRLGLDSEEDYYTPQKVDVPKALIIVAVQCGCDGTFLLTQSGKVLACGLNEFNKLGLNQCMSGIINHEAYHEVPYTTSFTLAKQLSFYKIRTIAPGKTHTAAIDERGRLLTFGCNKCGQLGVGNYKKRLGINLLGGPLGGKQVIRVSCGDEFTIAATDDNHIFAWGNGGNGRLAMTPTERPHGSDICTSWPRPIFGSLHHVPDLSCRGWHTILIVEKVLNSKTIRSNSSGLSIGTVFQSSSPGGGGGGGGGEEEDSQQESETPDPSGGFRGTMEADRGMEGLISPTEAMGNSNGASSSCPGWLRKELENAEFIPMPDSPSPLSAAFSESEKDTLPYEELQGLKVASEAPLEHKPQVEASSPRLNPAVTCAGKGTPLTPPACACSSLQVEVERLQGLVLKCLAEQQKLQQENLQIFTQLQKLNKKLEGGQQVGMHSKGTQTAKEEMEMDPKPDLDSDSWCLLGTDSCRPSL
The settings on record: at 10 µM.

For experiment [4], the target named is Homeodomain-interacting protein kinase 3 (Homo sapiens, UniProt Q9H422). Put plainly: Selectivity interaction (KinomeScan (DiscoverX)) EUB0000092b HIPK3. The settings on record: at 10 µM.
The target in experiment [5] is Casein kinase II subunit alpha (Homo sapiens, UniProt P68400). Put plainly: Selectivity interaction (KinomeScan (DiscoverX)) EUB0000045b CSNK2A1.
For experiment [6], the target named is Ribosomal protein S6 kinase alpha-5 (Homo sapiens) (UniProt O75582). Put plainly: Selectivity interaction (Upstate Kinase Profiler service (Millipore)) EUB0000056c RPS6KA5. The settings on record: at 1 µM.

In ChEMBL document CHEMBL5465560, “Selectivity Literature for EUbOPEN Chemogenomic Library” (2024) one finds % of control, % binding and % of inhibition data, which are given here for six compounds.

Chain of Casein kinase II subunit alpha (P68400 whole entry, looked up): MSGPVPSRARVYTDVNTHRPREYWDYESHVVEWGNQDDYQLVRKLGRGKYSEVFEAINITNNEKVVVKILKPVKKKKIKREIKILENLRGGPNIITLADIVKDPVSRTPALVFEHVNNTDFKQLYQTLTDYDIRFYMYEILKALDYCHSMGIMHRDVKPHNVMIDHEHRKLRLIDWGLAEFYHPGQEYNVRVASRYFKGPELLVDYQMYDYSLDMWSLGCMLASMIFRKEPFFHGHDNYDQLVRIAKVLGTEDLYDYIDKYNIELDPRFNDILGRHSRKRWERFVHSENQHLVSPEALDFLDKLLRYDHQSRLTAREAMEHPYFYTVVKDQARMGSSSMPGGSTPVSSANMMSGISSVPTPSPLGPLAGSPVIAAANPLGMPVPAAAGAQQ
Chain of Ribosomal protein S6 kinase alpha-5 (Homo sapiens) (O75582 whole entry, looked up): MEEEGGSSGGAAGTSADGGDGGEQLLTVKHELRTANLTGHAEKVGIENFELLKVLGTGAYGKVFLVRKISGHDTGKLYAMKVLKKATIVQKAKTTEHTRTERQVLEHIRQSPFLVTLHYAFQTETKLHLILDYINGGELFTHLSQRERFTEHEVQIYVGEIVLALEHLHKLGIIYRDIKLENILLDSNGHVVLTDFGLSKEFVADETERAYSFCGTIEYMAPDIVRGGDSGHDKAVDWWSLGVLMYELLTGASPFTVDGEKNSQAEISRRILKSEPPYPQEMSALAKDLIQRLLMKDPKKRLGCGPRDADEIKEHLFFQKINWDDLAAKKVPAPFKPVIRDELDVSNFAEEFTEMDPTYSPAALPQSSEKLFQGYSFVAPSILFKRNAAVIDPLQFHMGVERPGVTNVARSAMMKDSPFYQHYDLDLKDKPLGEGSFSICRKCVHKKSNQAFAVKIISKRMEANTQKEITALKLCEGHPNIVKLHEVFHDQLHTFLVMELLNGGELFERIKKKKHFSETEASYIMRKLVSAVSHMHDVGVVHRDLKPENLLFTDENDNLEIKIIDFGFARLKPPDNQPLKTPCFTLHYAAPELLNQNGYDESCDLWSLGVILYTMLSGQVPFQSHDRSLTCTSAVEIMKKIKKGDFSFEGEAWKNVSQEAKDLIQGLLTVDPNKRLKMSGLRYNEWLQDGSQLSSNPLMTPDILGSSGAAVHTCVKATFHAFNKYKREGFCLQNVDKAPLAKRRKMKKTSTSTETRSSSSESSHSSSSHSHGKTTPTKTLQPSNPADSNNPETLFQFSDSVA
Chain of Homeodomain-interacting protein kinase 3 (Q9H422 whole entry, looked up): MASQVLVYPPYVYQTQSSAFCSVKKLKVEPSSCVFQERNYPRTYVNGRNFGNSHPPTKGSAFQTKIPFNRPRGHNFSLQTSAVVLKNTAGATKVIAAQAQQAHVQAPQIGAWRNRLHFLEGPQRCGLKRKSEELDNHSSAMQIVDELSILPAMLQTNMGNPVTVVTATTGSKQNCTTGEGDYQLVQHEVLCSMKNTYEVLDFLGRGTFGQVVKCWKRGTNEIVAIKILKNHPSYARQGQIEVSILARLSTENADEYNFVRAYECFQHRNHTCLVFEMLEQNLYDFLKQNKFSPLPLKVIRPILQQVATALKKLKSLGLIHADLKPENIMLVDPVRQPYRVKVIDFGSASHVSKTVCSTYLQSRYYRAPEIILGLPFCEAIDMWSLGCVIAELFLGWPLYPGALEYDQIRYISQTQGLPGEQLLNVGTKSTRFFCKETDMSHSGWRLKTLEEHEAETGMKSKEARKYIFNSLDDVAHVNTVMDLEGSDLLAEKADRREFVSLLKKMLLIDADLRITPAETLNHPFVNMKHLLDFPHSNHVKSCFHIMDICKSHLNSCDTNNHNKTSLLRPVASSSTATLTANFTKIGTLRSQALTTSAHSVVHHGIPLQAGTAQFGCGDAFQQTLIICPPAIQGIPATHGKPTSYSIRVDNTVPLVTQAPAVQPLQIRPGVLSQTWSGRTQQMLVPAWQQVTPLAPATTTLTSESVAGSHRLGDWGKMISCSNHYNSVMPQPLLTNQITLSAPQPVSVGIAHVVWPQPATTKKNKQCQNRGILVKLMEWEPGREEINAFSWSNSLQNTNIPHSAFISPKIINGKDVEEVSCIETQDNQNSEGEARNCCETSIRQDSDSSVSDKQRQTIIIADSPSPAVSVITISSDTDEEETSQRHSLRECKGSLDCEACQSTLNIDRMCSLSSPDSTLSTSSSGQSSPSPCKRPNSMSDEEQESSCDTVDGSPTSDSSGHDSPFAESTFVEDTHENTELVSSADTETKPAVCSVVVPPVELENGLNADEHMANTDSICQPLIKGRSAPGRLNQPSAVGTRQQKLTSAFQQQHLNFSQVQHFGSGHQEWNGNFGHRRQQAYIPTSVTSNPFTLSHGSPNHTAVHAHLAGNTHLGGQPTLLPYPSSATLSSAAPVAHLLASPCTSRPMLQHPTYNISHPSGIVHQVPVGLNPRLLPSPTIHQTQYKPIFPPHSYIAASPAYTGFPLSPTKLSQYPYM

For the compound `CNC(=O)Nc1ccc(-c2nc(N3CC4CCC(C3)O4)c3cnn(C4CCC5(CC4)OCCO5)c3n2)cc1`, the % of control in experiment [1] was found to be 72%. Take `COc1cc(N(C)c2ccnc3ccc(C(F)(F)F)cc23)cc(OC)c1OC`: the % binding in experiment [2] worked out at 80%. In the case of `CCN(CC)CCCCNc1ncc2cc(-c3cc(OC)cc(OC)c3)c(NC(=O)NC(C)(C)C)nc2n1`, the % of control in experiment [3] was 100%.

`CCC(=O)N1CCN(c2ccc(-n3c(=O)ccc4cnc5ccc(-c6cnc7ccccc7c6)cc5c43)cc2C(F)(F)F)CC1` displayed a % of control in experiment [4] of 86%. On to `C=CC(=O)Nc1cc(-n2c(=O)ccc3cnc4ccc(-c5ccc(NS(C)(=O)=O)cc5)cc4c32)ccc1C`, for which the % of control in experiment [5] (at 1 µM) was determined as 84%; in experiment [5] (at 10 µM), 51%. Consider `Cc1ccc(-c2ccc3c(ccc4sc5c(c43)NC[C@@H](C)NC5=O)n2)cn1`, for which the % of inhibition in experiment [6] was -9%.
